Structures can show the parent of a compound that is named as a salt.

A short description of one data set: Human whole blood stability. Format: in vitro ADME. The conditions noted are these: 37° C. As for the experimental part:
(§1) Test compounds were incubated for a total of 240 minutes at 37° C. in whole mouse and whole human blood. The compounds were added at time-point 0 and sample aliquots were withdrawn at each time point (usually 0, 60 and 240 minutes). The samples were extracted using protein precipitation. Analysis of extracted samples was achieved using HPLC with MS detection. Several types of HPLC columns and mobile phase were used depending of the polarity of the compound. The compound stability was determined by the % of compound remaining at 240 minutes (peak response of compound at 240 minutes/peak response at 0 minutes×100).
For the compound `CCC(C)[C@H](N)C(=O)NCCCS(=O)(=O)O` (stereo partly shown) [Compound A11], the “Blood stability (% of compound remaining after 240 min.) Human Blood” value is on record as “+++ (+++: >75%)”.
Same read-out and setting: with `NCC(=O)NCCCS(=O)(=O)O` [Compound A10] the entry was “++ (++: 30-75%)”; with `CC(=O)OC(OC(=O)NCCCS(=O)(=O)O)C(C)C` (stereo not shown) [Compound C22], “++ (++: 30-75%)”; with `CC(C)C(OC(=O)NCCCS(=O)(=O)O)OC(=O)C(C)(C)C` (stereo not shown) [Compound C23], “++ (++: 30-75%)”.
On the same count and under the same terms, the result for `N[C@H](C(=O)NCCCS(=O)(=O)O)c1ccccc1` [Compound A15] reads “++ (++: 30-75%)”; that for `O=C(O)CCC(=O)NCCCS(=O)(=O)O` [Compound B5], “+++ (+++: >75%)”.
With `CC(OC(=O)CCCCC(=O)OCc1ccccc1)OC(=O)NCCCS(=O)(=O)O` (stereo not shown) [Compound C10], the “Blood stability (% of compound remaining after 240 min.) Human Blood” value is listed as “+ (+: <30%)”.
The same measure, in the same setting: with `CC(C)(CC(=O)O)CC(=O)NCCCS(=O)(=O)O` [Compound B3, 3,3-dimethyl-5-oxo-5-[(3-sulfopropyl)amino]pentanoic Acid Sodium Salt] the entry was “+++ (+++: >75%)”.
The same measure, in the same setting: the result for `CC(OC(=O)CCC(=O)O)OC(=O)NCCCS(=O)(=O)O` (stereo not shown) [Compound C4] reads “+++ (+++: >75%)”.
Still for that read-out and setting: the result for `CC(OC(=O)NCCCS(=O)(=O)O)OC(=O)C(C)(C)C` (stereo not shown) [Compound C15] reads “++ (++: 30-75%)”; that for `N[C@@H](Cc1c[nH]cn1)C(=O)NCCCS(=O)(=O)O` [Compound A13], “+++ (+++: >75%)”.
For the compound `CC(OC(=O)CCC(=O)OCc1ccccc1)OC(=O)NCCCS(=O)(=O)O` (stereo not shown) [Compound C5], the “Blood stability (% of compound remaining after 240 min.) Human Blood” value is recorded as “+ (+: <30%)”.
Still for that read-out and setting: the result for `CSCC[C@@H](N)C(=O)NCCCS(=O)(=O)O` [Compound A12] reads “+++ (+++: >75%)”.

The nature of the next data set: Mouse whole blood stability. The data set is classed as in vitro ADME. Particulars: 37° C. As for the experimental part:
as §1
With `CCC(C)[C@H](N)C(=O)NCCCS(=O)(=O)O` (stereo partly shown) [Compound A11], the “Blood stability (% of compound remaining after 240 min.) Mouse Blood” value is listed as “+++ (+++: >75%)”.
The same measure, in the same setting: the result for `NCC(=O)NCCCS(=O)(=O)O` [Compound A10] reads “++ (++: 30-75%)”; that for `CC(=O)OC(OC(=O)NCCCS(=O)(=O)O)C(C)C` (stereo not shown) [Compound C22], “+ (+: <30%)”.
As for `CC(C)C(OC(=O)NCCCS(=O)(=O)O)OC(=O)C(C)(C)C` (stereo not shown) [Compound C23], the “Blood stability (% of compound remaining after 240 min.) Mouse Blood” value is listed as “+ (+: <30%)”.
As to `N[C@H](C(=O)NCCCS(=O)(=O)O)c1ccccc1` [Compound A15], the “Blood stability (% of compound remaining after 240 min.) Mouse Blood” value was “+ (+: <30%)”.
Same read-out and setting: with `O=C(O)CCC(=O)NCCCS(=O)(=O)O` [Compound B5] the entry was “+++ (+++: >75%)”.
The same measure, in the same setting: the result for `CC(OC(=O)CCCCC(=O)OCc1ccccc1)OC(=O)NCCCS(=O)(=O)O` (stereo not shown) [Compound C10] reads “+ (+: <30%)”.
On the same count and under the same terms, the result for `CC(C)(CC(=O)O)CC(=O)NCCCS(=O)(=O)O` [Compound B3, 3,3-dimethyl-5-oxo-5-[(3-sulfopropyl)amino]pentanoic Acid Sodium Salt] reads “++ (++: 30-75%)”.
Turning to `CC(OC(=O)CCC(=O)O)OC(=O)NCCCS(=O)(=O)O` (stereo not shown) [Compound C4], the “Blood stability (% of compound remaining after 240 min.) Mouse Blood” value is recorded as “++ (++: 30-75%)”.
Still for that read-out and setting: the result for `CC(OC(=O)NCCCS(=O)(=O)O)OC(=O)C(C)(C)C` (stereo not shown) [Compound C15] reads “+ (+: <30%)”; that for `N[C@@H](Cc1c[nH]cn1)C(=O)NCCCS(=O)(=O)O` [Compound A13], “+++ (+++: >75%)”.
Same read-out and setting: with `N[C@@H](Cc1ccccc1)C(=O)NCCCS(=O)(=O)O` [Compound A1] the entry was “+ (+: <30%)”; with `CC(OC(=O)CCC(=O)OCc1ccccc1)OC(=O)NCCCS(=O)(=O)O` (stereo not shown) [Compound C5], “+ (+: <30%)”.
Regarding `CSCC[C@@H](N)C(=O)NCCCS(=O)(=O)O` [Compound A12], the “Blood stability (% of compound remaining after 240 min.) Mouse Blood” value is “+++ (+++: >75%)”.
As to `CC(OC(=O)NCCCS(=O)(=O)O)OC(=O)C1CCCCC1` (stereo not shown) [Compound C17], the “Blood stability (% of compound remaining after 240 min.) Mouse Blood” value is recorded as “+ (+: <30%)”.
Same read-out and setting: with `CC(OC(=O)NCCCS(=O)(=O)O)OC(=O)C(C)C` (stereo not shown) [Compound C18] the entry was “+ (+: <30%)”; with `CC(=O)OC(C)OC(=O)NCCCS(=O)(=O)O` (stereo not shown) [Compound C19, 4-aza-7-methyl-6,8,-dioxa-5,9,-dioxo-1-decanesulfonic acid Sodium Salt], “+ (+: <30%)”.
With `O=C(NCCCS(=O)(=O)O)[C@@H]1CCCN1` [Compound A3], the “Blood stability (% of compound remaining after 240 min.) Mouse Blood” value is “++ (++: 30-75%)”.

For the origin of these results see patent publication US11020360B2, “Methods, compounds, compositions and vehicles for delivering 3-amino-1-propanesulfonic acid” (Bellus Health, Inc., priority 2006, dated 2021).
